Data taken from patent US20050136006A1, “Quantitative assay of the angiogenic and antiangiogenic activity of a test molecule” (Government of the U.S.A.,represented by the Secretary, …, priority 2002, published 2005).
Several values for one entry are separate records, joined by “and”; a condition that tells them apart may be missing. Equal values may be shown once.

Experiments:
[1] = test system: endothelial cell proliferation in the CAM; test: CAM-XTT cell proliferation assay, spectrophotometrical absorbance; assay type: in vivo, chicken; details: FGF 2.0 μg/mL disc; systemic 100 μM Fumagillin or 3 mg/mL LM609; relative to FGF + 0.1% DMSO carrier
Protocol: Ten 10-day old eggs were divided into four groups and prepared as in Example 1. The eggs received (A) filter disks saturated with a vehicle solution (0.1% bovine serum albumin (BSA)/phosphate-buffered saline (PBS)) and systemic injection of a carrier solution (0.1% DMSO), (B) filter disks saturated with a stimulator solution (2.0 μg/mL FGF) and systemic injection of carrier solution (0.1% DMSO), (C) filter disks saturated with a stimulator solution (2.0 μg/mL FGF) and systemic injection of an inhibitor (100 μM Fumagillin), or (D) filter disks saturated with a stimulator solution (2.0 μg/mL FGF) and systemic injection of an inhibitor (3 mg/mL LM609). […]
XTT is a tetrazolium salt, which is reduced within the mitochondria of metabolically active cells to form a colored formazan dye. The amount of formazan dye produced is quantitatively measured by spectrophotometrical absorbance (e.g., by an ELISA plate reader) at 450-500 nm. […]
5 mL of XTT labeling reagent and 0.1 mL electron coupling reagent were mixed together and 30 μL of the mixture was applied onto the CAM disk via pipette. […] At Day 13, the disks were harvested for light photomicroscopy and the mean spectrophotometrical absorbance at 450 nm was measured (reference wavelength 620 nm (Titertek Multiskan Ascent Plate Reader)).

[2] = test system: filter discs and associated CAM tissue; test: CAM assay scored from light microscopic photographs by blinded observers; assay type: in vivo, chicken; set-up: scale not given here; details: for Score: individual discs
Protocol: However, instead of using laser confocal microscopy to determine an FVD value for a test region of interest, the filter discs and associated CAM tissue were photographed under light microscopy. The light microscopic photographs were evaluated independently by three blinded observers, all experts in the study of angiogenesis. […] If the blinded observer felt that a disc had too much hemorrhage or artifact to make an accurate assessment of angiogenesis, it was eliminated from that observer's assessment (represented by a “-” in Tables 2-4).

[3] = test system: chorioallantoic membrane tissue of an embryonated chicken egg; test: Modified CAM assay, fluorescent vascular density (FVD) by laser confocal microscopy after FITC-Dextran injection; assay type: in vivo; set-up: FVD Group Mean / FVD: scale not given here; details: for FVD: individual eggs
Protocol: Eighteen 10-day-old embryonated chicken eggs were obtained. A window was made in the shell of each egg. The chorioallantoic membranes were dropped to allow placement of a filter paper disc saturated with either basic fibroblast growth factor (bFGF) (1 μg/ml), as an angiogenic stimulator, or with a control solution (Clonetics EBM-2 media, Bio-Whittaker, Walersville, Md.). Twenty-four hours were allowed to elapse and a vessel was cannulated in each egg. Embryos that had received a filter disc saturated with bFGF then received a systemic injection of either Fumagillin (5 μg/egg, Calbiochem, San Diego, Calif.) in 0.1% dimethyl sulfoxide (DMSO) (Group A, n=3), or an injection of 0.1% DMSO carrier alone (Group B, n=5). Fumagillin is an organic compound with established antiangiogenic effects (see, e.g., Ingber et al., Nature, 348:555-557 (1990)). Embryos that had received a filter disc saturated with the control molecule received 0. 1% DMSO carrier injected systemically (Group C, n=10).
Forty-eight hours were allowed to elapse, and all eggs then received a systemic injection of fluorescein isothiocyanate (FITC)-Dextran (1 mg/ml), which was allowed to circulate for 30 minutes. Filter discs and associated CAM tissue (i.e., the region of interest) were excised from the egg and preserved in 10% formalin. The filter disc and region of interest were then laid out on a glass microscope slide and viewed using a laser confocal microscope (LSM 510 Laser Scanning Microscope, Carl Zeiss, Inc., Thronwood, N.Y.). The filter disc and region of interest were stimulated with an argon laser emitting at a wavelength of 488 nm. The resultant excitation was read using fluorescence filters at wavelengths of 505 nm and greater. The image was captured using LSM 5 Pascal software (Carl Zeiss, Inc.), through a microscope objective of 1.25×. The capture image data was formatted as 1024 pixels wide by 1024 pixels long, resulting in an overall image of 1,048,576 pixels, each with a brightness measured on a scale from 0 to 255. Multiple cross-sectional images were taken along a three-dimensional z-axis at 200 micron intervals through each filter disc and region of interest from each egg. Each filter disc and region of interest was thereby determined to have a fluorescent vascular density reflective of the density of vasculature of the CAM tissue associated with the filter disc. One filter disc in Group C was eliminated from analysis owing to gross extravasation of fluorescein, rendering it unreadable (represented by “-” in Table 1).

[4] = Table 2, one blinded observer, Group A: bFGF disc + Fumagillin 5 μg/egg
[5] = Table 3, one blinded observer, Group A: bFGF disc + Fumagillin 5 μg/egg
[6] = Table 4, one blinded observer, Group A: bFGF disc + Fumagillin 5 μg/egg
[7] = Table 2, one blinded observer, Group B: bFGF disc + 0.1% DMSO carrier
[8] = Table 3, one blinded observer, Group B: bFGF disc + 0.1% DMSO carrier
[9] = Table 4, one blinded observer, Group B: bFGF disc + 0.1% DMSO carrier

| Compound | effect on spectrophotometrical absorbance (450 nm) of FGF-stimulated specimens [1] | Score Group Mean [2, 4] | Score [2, 4] | Score Group Mean [2, 5] | Score [2, 5] | Score Group Mean [2, 6] | Score [2, 6] | FVD ([3]; Treatment Group A: bFGF (1 μg/ml) filter disc, systemic Fumagillin 5 μg/egg in 0.1% DMSO, 48 h) | FVD Group Mean ([3]; Treatment Group A: bFGF (1 μg/ml) filter disc, systemic Fumagillin 5 μg/egg in 0.1% DMSO, n=3) | effect on fluorescent vascular density of bFGF-stimulated specimens ([3]; systemic injection, on average, relative to bFGF stimulation + control molecule (Group B)) | Score Group Mean [2, 7] | Score [2, 7] | Score Group Mean [2, 8] | Score [2, 8] | Score Group Mean [2, 9] | Score [2, 9] | FVD ([3]; Treatment Group B: bFGF (1 μg/ml) filter disc, systemic 0.1% DMSO carrier alone) | FVD Group Mean ([3]; Treatment Group B: bFGF (1 μg/ml) filter disc, systemic 0.1% DMSO carrier alone, n=5) |
| --- | --- | --- | --- | --- | --- | --- | --- | --- | --- | --- | --- | --- | --- | --- | --- | --- | --- | --- |
| CO[C@@H]1[C@H](OC(=O)/C=C/C=C/C=C/C=C/C(=O)O)CC[C@]2(CO2)[C@H]1[C@@]1(C)O[C@@H]1CC=C(C)C [Fumagillin] | reduced the spectrophotometrical absorbance | 2 | 2 | 2.7 | 2 and 3 (2×) | 2 | 3 and 2 and 1 | 0.0673 and 0.0533 and 1.5029 | 0.5412 | reduce the fluorescent vascular density |  |  |  |  |  |  |  |  |
| basic fibroblast growth factor [bFGF] |  |  |  |  |  |  |  |  |  |  | 1.8 | 2 (2×) and 3 and 1 (2×) | 2.4 | 2 and 3 (3×) and 1 | 2.2 | 2 (2×) and 3 (2×) and 1 | 2.5401 and 3.7715 and 1.9767 and 0.6873 and 2.6344 | 2.322 |
